Source: the NIST ThermoML archive (doi:10.1021/je700523b)
Numbers after ± are expanded uncertainties.

Assay: wn = mass fraction of the nth substance listed
Conditions: 298.15 K; for surface tension liquid-gas: Pendant drop shape; for mass density / viscosity: 101 kPa, Liquid; for mass density: Vibrating tube method

CCOS(=O)(=O)[O-].CCn1cc[n+](C)c1 [1-ethyl-3-methylimidazolium ethyl sulfate] + O
Conditions	mass density [kg/m3]	surface tension liquid-gas [mN/m]	viscosity [mPa·s]
w2 = 0.000475	1236.26 ± 8.3	47 ± 1.2	91.85 ± 45
w2 = 0.00754	1234.51 ± 8.2	47.23 ± 1.2	83.6 ± 35
w2 = 0.0144	1233.93 ± 8.1	48.01 ± 1.3	70.21 ± 19
w2 = 0.02531	1231.35 ± 7.8	48.08 ± 1.3	65.61 ± 14
w2 = 0.03047	1230 ± 7.7	48.09 ± 1.2	55.78 ± 5.1
w2 = 0.03849	1227.15 ± 7.6	47.93 ± 1.2	41.85 ± 7.8
w2 = 0.04185	1228.01 ± 7.5	48.14 ± 1.2	33.3 ± 6.2
w2 = 0.05643	1226.3 ± 7.3	47.95 ± 1.2	30.63 ± 5.7
w2 = 0.06937	1222.45 ± 7	48.25 ± 1.2	24.8 ± 4.6
w2 = 0.07519	1219.51 ± 6.9	48.97 ± 1.2	23.63 ± 4.4
w2 = 0.09292	1215.44 ± 6.6	49.35 ± 1.2	17.41 ± 3.3
w2 = 0.09493	1214.98 ± 6.6	50.11 ± 1.2	14.73 ± 2.8
